Assay results from US8628767B2, “Purine nucleoside phosphorylase as enzymatic activator of nucleoside prodrugs” (priority 2008, dated 2014).

Columns and labels:
[1] = target: E. coli PNP (Escherichia coli, UniProt P0ABP8); assay: Substrate cleavage by wild-type E. coli PNP (HPLC); assay type: biochemical; conditions: 100 micromolar substrate, HPLC separation of base from nucleoside
Protocol: (§1) The method quantitatively measures the cleavage of substrates in vitro. The purine analog nucleosides (0.1 mM in 500 μl of 100 mM HEPES, pH 7.4, 50 mM potassium phosphate) are combined with 100 μg/ml Tv-PNP or wild-type E. coli PNP. The reaction mixtures are incubated at 25° C. for 1 hour, and the reactions stopped by boiling each sample for 2 minutes. Protein concentration and time of assay are varied depending on activity of enzyme for a particular substrate. Each sample is analyzed by reverse phase HPLC to measure conversion from substrate to product. The nucleoside and purine analogs are eluted from a Spherisorb ODSI (5 μm) column (Keystone Scientific, Inc., State College, Pa.) with a solvent containing 50 mM ammonium dihydrogen phosphate (95%) and acetonitrile (5%). Products are detected by absorbance at 254 nm, and are identified by comparing their retention times and absorption spectra with authentic control samples.
Numerous compounds are tested for efficiency as substrate for Tv-PNP in parallel comparison with E. coli PNP. […] The enzymes are incubated with 100 micromolar of each compound listed in the table and the rate of enzymatic cleavage is determined by HPLC separation of the base from the nucleoside.

[2] = test system: T. vaginalis PNP; assay: Substrate cleavage by wild-type Tv-PNP (HPLC); assay type: biochemical, Trichomonas vaginalis; conditions: for rate of enzymatic cleavage by T. vaginalis PNP: 100 micromolar substrate, HPLC separation of base from nucleoside; for activity of Tv-PNP as compared to wild-type E. coli PNP: summary of Table 1
Protocol: as §1
Numerous compounds are tested for efficiency as substrate for Tv-PNP in parallel comparison with E. coli PNP. The compounds include various analogs of adenosine, of inosine, of MeP-dR, and of fluoro- or chloro-substituted adenosine. The enzymes are incubated with 100 micromolar of each compound listed in the table and the rate of enzymatic cleavage is determined by HPLC separation of the base from the nucleoside. […] It is appreciated that the greater biological activity of the Tv-PNP enzyme allows for greater activity in impairing abnormal cell growth when the Tv-PNP is used for treatment of pathological conditions using F-araA as a prodrug substrate.

Sequence of E. coli PNP (P0ABP8 whole entry): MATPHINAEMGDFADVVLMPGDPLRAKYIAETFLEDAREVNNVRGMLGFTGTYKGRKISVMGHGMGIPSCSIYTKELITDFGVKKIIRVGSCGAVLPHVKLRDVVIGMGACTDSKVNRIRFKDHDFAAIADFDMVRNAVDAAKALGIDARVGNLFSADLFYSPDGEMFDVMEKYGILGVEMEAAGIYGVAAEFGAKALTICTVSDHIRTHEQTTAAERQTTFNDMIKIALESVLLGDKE

Row | Molecule | rate of enzymatic cleavage by E. coli PNP [1] | rate of enzymatic cleavage by T. vaginalis PNP [2] | rate of enzymatic cleavage by E. coli PNP ([1]; listed as Cl-dAdo) | rate of enzymatic cleavage by T. vaginalis PNP ([2]; listed as Cl-dAdo) | activity of Tv-PNP as compared to wild-type E. coli PNP [2]
1 | 9-β-D-pyranosyl-adenine | <1 nanomoles per milligrams per hour | 2 nanomoles per milligrams per hour | – | – | –
2 | Nc1nc(Cl)nc2c1ncn2[C@H]1C[C@H](O)[C@@H](CO)O1 [2-Cl-2′-deoxyadenosine (Cl-dAdo), 2-chloro-2′-deoxyadenosine, reference compound] | 39,000 nanomoles per milligrams per hour | 352,000 nanomoles per milligrams per hour | 39,000 nanomoles per milligrams per h | 320,000 nanomoles per milligrams per h | more activity
3 | Nc1nc(Cl)nc2c1ncn2[C@H]1C[C@H](O)[C@@H](CO)O1 [2-Cl-2′-deoxyadenosine (α-L), 2-Cl-2′-deoxyadenosine] | <1 nanomoles per milligrams per hour | <8 nanomoles per milligrams per hour | – | – | –
4 | Nc1nc(Cl)nc2c1ncn2[C@H]1C[C@H](O)[C@@H](CO)O1 [2-Cl-2′-deoxyadenosine (β-L), 2-Cl-2′-deoxyadenosine] | <1 nanomoles per milligrams per hour | <8 nanomoles per milligrams per hour | – | – | –
5 | Nc1nc(F)nc2c1ncn2[C@H]1C[C@H](O)[C@@H](CO)O1 [2-F-2′-deoxyadenosine (F-dAdo), 2-fluoro-2′-deoxyadenosine] | 435,000 nanomoles per milligrams per hour | 400,000 nanomoles per milligrams per hour | – | – | –
6 | C[C@H]1O[C@@H](n2cnc3c(N)nc(F)nc32)[C@H](O)[C@@H]1O [2-F-5′-deoxy-adenosine, 2-fluoro-5′-deoxyadenosine] | 29,000 nanomoles per milligrams per hour | 50,000 nanomoles per milligrams per hour | – | – | more activity
7 | Nc1nc(F)nc2c1ncn2[C@@H]1O[C@H](CO)[C@@H](O)[C@H]1O [2-F-adenosine] | 215,000 nanomoles per milligrams per hour | 185,000 nanomoles per milligrams per hour | – | – | –
8 | Nc1ncnc2c1ncn2[C@H]1CC[C@@H](CO)O1 [2′,3′-dideoxyadenosine] | <2 nanomoles per milligrams per hour | 640 nanomoles per milligrams per hour | – | – | –
9 | CO[C@@H]1[C@H](O)[C@@H](CO)O[C@H]1n1cnc2c(N)ncnc21 [2′-O^methyl-adenosine] | <1 nanomoles per milligrams per hour | <10 nanomoles per milligrams per hour | – | – | –
10 | OC[C@H]1O[C@@H](n2cnc3c(O)ncnc32)C[C@@H]1O [2′-deoxyinosine, reference compound] | 733,000 nanomoles per milligrams per hour | 660,000 nanomoles per milligrams per hour | – | – | –
11 | Nc1ncnc2c1ncn2[C@@H]1O[C@H](CO)C[C@H]1O [3′-deoxyadenosine (cordycepin), 3′-deoxyadenosine, reference compound] | <2 nanomoles per milligrams per hour | 2,000 nanomoles per milligrams per hour | – | – | –
12 | NC[C@H]1O[C@@H](n2cnc3c(N)ncnc32)[C@H](O)[C@@H]1O [5′-amino-5′-deoxyadenosine] | 540 nanomoles per milligrams per hour | 4,200 nanomoles per milligrams per hour | – | – | –
13 | NC(=O)[C@H]1O[C@@H](n2cnc3c(N)ncnc32)[C@H](O)[C@@H]1O [5′-carboxamide of adenosine] | <1 nanomoles per milligrams per hour | 33 nanomoles per milligrams per hour | – | – | –
14 | C[C@H]1O[C@@H](n2cnc3c(N)ncnc32)[C@H](O)[C@@H]1O [5′-deoxyadenosine] | 8,400 nanomoles per milligrams per hour | 50,000 nanomoles per milligrams per hour | – | – | –
15 | Cc1ncnc2ncn([C@H]3C[C@H](O)[C@H](CO)O3)c12 [7-[2-deoxy-α-L-lyxofuranosyl]-6-methylpurine] | <1 nanomoles per milligrams per hour | <8 nanomoles per milligrams per hour | – | – | –
16 | Nc1nc2ncn([C@@H]3O[C@H](CO)[C@@H](O)[C@H]3O)c2c(=S)[nH]1 [7-β-D-ribosyl-6-thioguanine] | 66 nanomoles per milligrams per hour | 435 nanomoles per milligrams per hour | – | – | –
17 | O=c1[nH]cnc2ncn([C@@H]3O[C@H](CO)[C@@H](O)[C@H]3O)c12 [7-β-D-ribosyl-hypoxanthine] | 5,200 nanomoles per milligrams per hour | 2,300 nanomoles per milligrams per hour | – | – | –
18 | Cc1ncnc2c1ncn2[C@@H]1C[C@H](O)[C@@H](CO)O1 [9-[2-deoxy-α-D-ribofuranosyl]-6-methylpurine] | <1 nanomoles per milligrams per hour | <8 nanomoles per milligrams per hour | – | – | –
19 | Cc1ncnc2c1ncn2[C@@H]1O[C@H](C(C)(C)O)[C@@H](O)[C@H]1O [9-[5,5-dimethyl-β-D-ribofuranosyl]-6-methylpurine] | <1 nanomoles per milligrams per hour | <8 nanomoles per milligrams per hour | – | – | –
20 | Cc1ncnc2c1ncn2[C@@H]1O[C@@H](CI)[C@@H](O)[C@H]1O [9-[5-deoxy-5-iodo-α-L-lyxofuranosyl]-6-methylpurine] | <1 nanomoles per milligrams per hour | <8 nanomoles per milligrams per hour | – | – | –
21 | Cc1ncnc2c1ncn2[C@@H]1O[C@@H](C)[C@@H](O)[C@H]1O [9-[5-deoxy-α-L-lyxofuranosyl]-6-methylpurine] | 20 nanomoles per milligrams per hour | 246 nanomoles per milligrams per hour | – | – | –
22 | Cc1ncnc2c1ncn2[C@@H]1O[C@H](C)[C@@H](O)[C@H]1O [9-[5-deoxy-β-D-ribofuranosyl]-6-methylpurine] | 406 nanomoles per milligrams per hour | 3,600 nanomoles per milligrams per hour | – | – | –
23 | Cc1ncnc2c1ncn2[C@@H]1O[C@H]([C@@H](C)O)[C@@H](O)[C@H]1O [9-[5-methyl-(allo)-β-D-ribofuranosyl]-6-methylpurine] | 47 nanomoles per milligrams per hour | 223 nanomoles per milligrams per hour | – | – | more activity
24 | Cc1ncnc2c1ncn2[C@H]1C[C@H](O)[C@@H]([C@H](C)O)O1 [9-[5-methyl-(talo)-2-deoxy-β-D-ribofuranosyl]-6-methylpurine] | 3,600 nanomoles per milligrams per hour | 103,000 nanomoles per milligrams per hour | – | – | more activity
25 | Cc1ncnc2c1ncn2[C@@H]1O[C@H]([C@H](C)O)[C@@H](O)[C@H]1O [9-[5-methyl-(talo)-β-D-ribofuranosyl]-6-methylpurine] | 915 nanomoles per milligrams per hour | 8,400 nanomoles per milligrams per hour | – | – | more activity
26 | Cc1ncnc2c1ncn2[C@@H]1O[C@H](CO)[C@@H](O)[C@@H]1O [9-[β-D-arabinofuranosyl]-6-methylpurine] | 14 nanomoles per milligrams per hour | 570 nanomoles per milligrams per hour | – | – | –
27 | Nc1ncnc2c1ncn2[C@@H]1O[C@H](CO)[C@@H](O)[C@H]1O [Adenosine, reference compound] | – | 501,000 nanomoles per milligrams per hour | – | – | –
